Experimental data taken from patent publication US20240360178A1, “MACROCYCLIC IMMUNOMODULATORS” (Bristol-Myers Squibb Company, priority 2021, published 2024).
Positions of bridges follow the written chain, without caps; N, C: chain ends. Non-standard residues stand in square brackets, D forms with d. Residues, ends and D or L forms follow the SMILES beside them. ξ: configuration not given here. *: point of attachment. Phe(4-COOH) = N[C@@H](Cc1ccc(C(=O)O)cc1)C(=O)O; Bip = N[C@@H](Cc1ccc(-c2ccccc2)cc1)C(=O)O; Phe(3-Me) = Cc1cccc(C[C@H](N)C(=O)O)c1; d(cisHyp) = O=C(O)[C@H]1C[C@@H](O)CN1; NMeF = CN[C@@H](Cc1ccccc1)C(=O)O; ξW = NC(Cc1c[nH]c2ccccc12)C(=O)O; 4Pal = N[C@@H](Cc1ccncc1)C(=O)O; Cha = N[C@@H](CC1CCCCC1)C(=O)O; NMeS = CN[C@@H](CO)C(=O)O; dDab = NCC[C@@H](N)C(=O)O; Carboxymethyl = O=C(O)C*; NMeA = CN[C@@H](C)C(=O)O; Orn = NCCC[C@H](N)C(=O)O; Dab = NCC[C@H](N)C(=O)O; Nva = CCC[C@H](N)C(=O)O; Dap = NC[C@H](N)C(=O)O; ξV = CC(C)C(N)C(=O)O; Sar = CNCC(=O)O

Target: T1, human PD-1 (Jurkat-PD-1 cells) / PE-labeled human PD-L1-Ig (Homo sapiens, UniProt Q15116)
T1 construct: expressed in transfected cells; host or cells: Jurkat cell line over-expressing human PD-1
T1 sequence (Q15116 25-288): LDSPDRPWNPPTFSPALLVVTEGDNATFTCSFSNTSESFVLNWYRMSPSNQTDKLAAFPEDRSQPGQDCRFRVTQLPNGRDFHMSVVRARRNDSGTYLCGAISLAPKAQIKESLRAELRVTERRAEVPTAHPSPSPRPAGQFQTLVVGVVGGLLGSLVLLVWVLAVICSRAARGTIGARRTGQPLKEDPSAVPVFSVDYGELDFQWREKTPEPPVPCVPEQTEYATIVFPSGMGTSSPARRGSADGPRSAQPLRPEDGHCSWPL
Assay: Jurkat-PD-1 Cell Binding High-Content Screening Assay (CBA); Jurkat hPD1-PDL1 assay
Conditions: Jurkat cell line over-expressing human PD-1; PE-labeled PD-L1-Ig 20 nM final; compound incubated 2 hours at 37° C.; read-out: Jurkat HPD1-PDL1 IC50
Summary of the method: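 Compound was added to Jurkat-PD-1 cells in DMEM plus 10% fetal calf serum and incubated 2 hours at 37° C. Binding of phycoerythrin-conjugated PD-L1-Ig (20 nM final) to the cells was imaged.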

| Compound | IC50 [µM] |
| --- | --- |
| CC(C)C[C@@H]1NC(=O)C(Cc2c[nH]c3ccccc23)NC(=O)[C@H](CC(=O)O)NC(=O)[C@H](Cc2ccc(O)cc2)NC(=O)[C@H](Cc2ccccc2)NC(=O)CSC[C@@H](C(=O)NCC(N)=O)NC(=O)[C@H](CO)NC(=O)[C@H](C(C)C)NC(=O)[C@H](CC(C)C)NC(=O)[C@H](CCCNC(=N)N)NC(=O)CN(C)C(=O)[C@H](C)N(C)C(=O)[C@H](CCCNC(=N)N)NC(=O)[C@H](Cc2ccc(-c3ccccc3)cc2)NC1=O (stereo partly drawn) [Example 1231] ({CH2CO}-FYD[ξW]L[Bip]R[NMeA][Sar]RLVSCG-NH2; thioether N-14) | 0.9 |
| Cc1cccc(C[C@@H]2NC(=O)[C@H](CC(=O)O)NC(=O)[C@H](Cc3ccc(C(=O)O)cc3)NC(=O)[C@H](Cc3ccc(OCC(=O)O)cc3)NC(=O)CSC[C@@H](C(=O)N[C@@H](C)C(N)=O)NC(=O)[C@H]([C@@H](C)O)NC(=O)[C@H](C(C)C)NC(=O)[C@H](CC3CCCCC3)NC(=O)[C@H](CCN)NC(=O)[C@H](Cc3ccccc3)N(C)C(=O)[C@H](CCCN)NC(=O)[C@H](CCC(=O)O)NC(=O)[C@H](Cc3ccc(-c4ccccc4)cc3)NC(=O)C(C(C)C)NC2=O)c1 (stereo partly drawn) [Example 1449] ({CH2CO}-Y(Carboxymethyl)[Phe(4-COOH)]D[Phe(3-Me)][ξV][Bip]E[Orn][NMeF][Dab][Cha]VTCA-NH2; thioether N-14) | 0.03 |
| CC(C)C[C@@H]1NC(=O)[C@H](Cc2c[nH]c3ccccc23)NC(=O)[C@H](CC(=O)O)NC(=O)[C@H](Cc2ccc(C(=O)O)cc2)NC(=O)[C@H](Cc2ccc(OCC(=O)O)cc2)NC(=O)CSC[C@@H](C(=O)N[C@@H](C)C(N)=O)NC(=O)[C@H](CO)NC(=O)[C@H](C(C)C)NC(=O)[C@H](CC(C)C)NC(=O)[C@H](CC(N)=O)NC(=O)[C@H]2CCCN2C(=O)[C@H](C)N(C)C(=O)[C@H](C(C)C)NC(=O)[C@H](Cc2ccc(-c3ccccc3)cc2)NC1=O [Example 1430] ({CH2CO}-Y(Carboxymethyl)[Phe(4-COOH)]DWL[Bip]V[NMeA][dP]NLVSCA-NH2; thioether N-14) | 0.08 |
| CC(C)C[C@@H]1NC(=O)[C@H](CCCN)NC(=O)[C@H](Cc2ccccc2)N(C)C(=O)[C@H](C)N(C)C(=O)[C@H](CCC(=O)O)NC(=O)[C@H](Cc2ccc(-c3ccccc3)cc2)NC(=O)[C@H](C(C)C)NC(=O)[C@H](Cc2c[nH]c3ccccc23)NC(=O)[C@H](CC(=O)O)NC(=O)[C@H](Cc2ccc(O)cc2)NC(=O)[C@H](Cc2ccccc2)NC(=O)CSC[C@@H](C(=O)N[C@@H](CCC(=O)O)C(N)=O)NC(=O)[C@H]([C@@H](C)O)NC(=O)[C@H](C(C)C)NC1=O [Example 1350] ({CH2CO}-FYDWV[Bip]E[NMeA][NMeF][Orn]LVTCE-NH2; thioether N-14) | 0.21 |
| CC(C)C[C@@H]1NC(=O)[C@H](Cc2c[nH]c3ccccc23)NC(=O)[C@H](CC(=O)O)NC(=O)[C@H](Cc2ccc(O)cc2)NC(=O)[C@H](Cc2ccccc2)NC(=O)CSC[C@@H](C(=O)N[C@@H](CN)C(N)=O)NC(=O)[C@H](CO)NC(=O)[C@H](C(C)C)NC(=O)[C@H](CC(C)C)NC(=O)[C@H](CC(N)=O)NC(=O)CN(C)C(=O)[C@H](C)N(C)C(=O)[C@H](C(C)C)NC(=O)[C@H](Cc2ccc(-c3ccccc3)cc2)NC1=O [Example 1168] ({CH2CO}-FYDWL[Bip]V[NMeA][Sar]NLVSC[Dap]-NH2; thioether N-14) | 0.93 |
| CC(C)C[C@@H]1NC(=O)[C@H](Cc2c[nH]c3ccccc23)NC(=O)[C@H](CC(=O)O)NC(=O)[C@H](Cc2ccc(O)cc2)NC(=O)[C@H](Cc2ccccc2)NC(=O)CSC[C@@H](C(=O)N[C@@H](C)C(N)=O)NC(=O)[C@H](CO)NC(=O)[C@H](C(C)C)NC(=O)[C@H](CC(C)C)NC(=O)[C@H](CC(N)=O)NC(=O)CN(C)C(=O)[C@@H](CCN)NC(=O)[C@H](C(C)C)NC(=O)[C@H](Cc2ccc(-c3ccccc3)cc2)NC1=O [Example 1196] ({CH2CO}-FYDWL[Bip]V[dDab][Sar]NLVSCA-NH2; thioether N-14) | 0.95 |
| CC(C)C[C@@H]1NC(=O)[C@H](Cc2c[nH]c3ccccc23)NC(=O)[C@H](CC(=O)O)NC(=O)[C@H](Cc2ccc(C(=O)O)cc2)NC(=O)[C@H](Cc2ccccc2)NC(=O)CSC[C@@H](C(=O)N[C@@H](C)C(N)=O)NC(=O)[C@H](CO)NC(=O)[C@H](C(C)C)NC(=O)[C@H](CC(C)C)NC(=O)[C@H](CC(N)=O)NC(=O)[C@H]2CCCN2C(=O)[C@H](C)N(C)C(=O)[C@H](C(C)C)NC(=O)[C@H](Cc2ccc(-c3ccccc3)cc2)NC1=O [Example 1020] ({CH2CO}-F[Phe(4-COOH)]DWL[Bip]V[NMeA][dP]NLVSCA-NH2; thioether N-14) | 0.04 |
| CC(C)C[C@@H]1NC(=O)[C@H](Cc2c[nH]c3ccccc23)NC(=O)[C@H](CC(=O)O)NC(=O)[C@H](Cc2ccc(O)cc2)NC(=O)[C@H](Cc2ccccc2)NC(=O)CSC[C@@H](C(=O)NCC(N)=O)NC(=O)[C@H](CO)NC(=O)[C@H](C(C)C)NC(=O)[C@H](CC(C)C)NC(=O)[C@H](CC(N)=O)NC(=O)[C@H](CO)N(C)C(=O)[C@H](C)N(C)C(=O)[C@H](C(C)C)NC(=O)[C@H](Cc2ccc(-c3ccccc3)cc2)NC1=O [Example 1084] ({CH2CO}-FYDWL[Bip]V[NMeA][NMeS]NLVSCG-NH2; thioether N-14) | 0.24 |
| CC(C)C[C@@H]1NC(=O)[C@H](Cc2c[nH]c3ccccc23)NC(=O)[C@H](CC(=O)O)NC(=O)[C@H](Cc2ccc(O)cc2)NC(=O)[C@H](Cc2ccccc2)NC(=O)CSC[C@@H](C(=O)N[C@@H](C)C(N)=O)NC(=O)[C@H](CO)NC(=O)[C@H](C(C)C)NC(=O)[C@H](CC(C)C)NC(=O)[C@H](CC(N)=O)NC(=O)[C@H]2C[C@@H](O)CN2C(=O)[C@H](C)N(C)C(=O)[C@H](C(C)C)NC(=O)[C@H](Cc2ccc(-c3ccccc3)cc2)NC1=O [Example 1126] ({CH2CO}-FYDWL[Bip]V[NMeA][d(cisHyp)]NLVSCA-NH2; thioether N-14) | 0.48 |
| CC(C)C[C@@H]1NC(=O)CSC[C@@H](C(=O)N[C@@H](C)C(N)=O)NC(=O)[C@H](CO)NC(=O)[C@H](C(C)C)NC(=O)[C@H](CC(C)C)NC(=O)[C@H](CCN)NC(=O)[C@H](Cc2ccccc2)N(C)C(=O)[C@H](C)N(C)C(=O)[C@H](CCCNC(=N)N)NC(=O)[C@H](Cc2ccc(-c3ccccc3)cc2)NC(=O)[C@H](C(C)C)NC(=O)[C@H](Cc2c[nH]c3ccccc23)NC(=O)[C@H](CC(=O)O)NC(=O)[C@H](Cc2ccc(O)cc2)NC1=O [Example 1305] ({CH2CO}-LYDWV[Bip]R[NMeA][NMeF][Dab]LVSCA-NH2; thioether N-14) | 0.06 |
| CC(C)C[C@@H]1NC(=O)[C@H](CCCCN)NC(=O)[C@H](Cc2ccccc2)N(C)C(=O)[C@H](C)N(C)C(=O)[C@H](CCCNC(=N)N)NC(=O)[C@H](Cc2ccc(-c3ccccc3)cc2)NC(=O)[C@H](C(C)C)NC(=O)[C@H](Cc2c[nH]c3ccccc23)NC(=O)[C@H](CC(=O)O)NC(=O)[C@H](Cc2ccc(O)cc2)NC(=O)[C@H](Cc2ccccc2)NC(=O)CSC[C@@H](C(=O)N[C@@H](CO)C(N)=O)NC(=O)[C@H]([C@@H](C)O)NC(=O)[C@H](C(C)C)NC1=O [Example 1359] ({CH2CO}-FYDWV[Bip]R[NMeA][NMeF]KLVTCS-NH2; thioether N-14) | 0.27 |
| CC(C)C[C@@H]1NC(=O)[C@H](Cc2c[nH]c3ccccc23)NC(=O)[C@H](CC(=O)O)NC(=O)[C@H](Cc2ccc(O)cc2)NC(=O)[C@H](CC(N)=O)NC(=O)CSC[C@@H](C(=O)NCC(N)=O)NC(=O)[C@H]([C@@H](C)O)NC(=O)[C@H](C(C)C)NC(=O)[C@H](CC(C)C)NC(=O)[C@H](CC(N)=O)NC(=O)[C@H]2CCCN2C(=O)[C@H](CCCN)NC(=O)[C@H](C(C)C)NC(=O)[C@H](Cc2ccc(-c3ccccc3)cc2)NC1=O [Example 1424] ({CH2CO}-NYDWL[Bip]V[Orn][dP]NLVTCG-NH2; thioether N-14) | 0.66 |
| CC(C)C[C@@H]1NC(=O)[C@H](Cc2c[nH]c3ccccc23)NC(=O)[C@H](CC(=O)O)NC(=O)[C@H](Cc2ccc(O)cc2)NC(=O)[C@H](Cc2ccccc2)NC(=O)CSC[C@@H](C(=O)N[C@@H](C)C(N)=O)NC(=O)[C@H](CO)NC(=O)[C@H](C(C)C)NC(=O)[C@H](CC(C)C)NC(=O)[C@H](CCCNC(=N)N)NC(=O)[C@H]2CCCN2C(=O)[C@H](C)N(C)C(=O)[C@H](CCCNC(=N)N)NC(=O)[C@H](Cc2ccc(-c3ccccc3)cc2)NC1=O [Example 1096] ({CH2CO}-FYDWL[Bip]R[NMeA][dP]RLVSCA-NH2; thioether N-14) | 0.28 |
| CCC[C@H](NC(=O)[C@@H]1CSCC(=O)N[C@@H](Cc2ccccc2)C(=O)N[C@@H](Cc2ccc(O)cc2)C(=O)N[C@@H](CC(=O)O)C(=O)N[C@@H](Cc2c[nH]c3ccccc23)C(=O)N[C@@H](C(C)C)C(=O)N[C@@H](Cc2ccc(-c3ccccc3)cc2)C(=O)N[C@@H](CCCNC(=N)N)C(=O)N(C)[C@@H](C)C(=O)N(C)[C@@H](Cc2ccccc2)C(=O)N[C@@H](CCCNC(=N)N)C(=O)N[C@@H](CC(C)C)C(=O)N[C@@H](C(C)C)C(=O)N[C@@H](CO)C(=O)N1)C(N)=O [Example 1329] ({CH2CO}-FYDWV[Bip]R[NMeA][NMeF]RLVSC[Nva]-NH2; thioether N-14) | 0.26 |
| CC(C)C[C@@H]1NC(=O)[C@H](CC(N)=O)NC(=O)[C@H]2CCCN2C(=O)[C@H](C)N(C)C(=O)[C@H](C(C)C)NC(=O)[C@H](Cc2ccc(-c3ccccc3)cc2)NC(=O)[C@@H](CC(C)C)NC(=O)[C@H](Cc2c[nH]c3ccccc23)NC(=O)[C@H](CC(=O)O)NC(=O)[C@H](Cc2ccc(C(=O)O)cc2)NC(=O)[C@H](Cc2ccncc2)NC(=O)CSC[C@@H](C(=O)N[C@@H](C)C(N)=O)NC(=O)[C@@H](CO)NC(=O)[C@H](C(C)C)NC1=O [Example 1389] ({CH2CO}-[4Pal][Phe(4-COOH)]DW[dL][Bip]V[NMeA][dP]NLV[dS]CA-NH2; thioether N-14) | 0.05 |
